Measurements as given in patent US20250222120A1, “SYNTHESIS OF NOVEL SMALL MOLECULE CARM1 DEGRADERS, COMPOUNDS FORMED THEREBY, AND PHARMACEUTICAL COMPOSITIONS CONTAINING THEM” (Wisconsin Alumni Research Foundation, priority 2024, published 2025).

Assays:
Type in all cases: cell-based
MDA-MB-231 cells = assay: Transwell migration assay, MDA-MB-231 cells
Method: Transwell Migration Assay. Cells were harvested and washed in serum-free DMEM. The wells of a 24-well plate were filled with 800 μL of DMEM with 10% FBS. Transwell inserts with […] pore size were then added to the wells with DMEM. Cells were resuspended in serum-free DMEM, then 1×10^5 cells in 200 μL were added to the upper chambers. Drug treatments were added to the lower chambers, then incubated for 20 h at 37° C. The cells on the upper surface were removed with cotton swabs. Migratory cells were fixed in 3.7% formaldehyde at room temperature, followed by 100% methanol at −20° C. Fixed cells were stained with 1% crystal violet in 20% methanol for 30 min. The migration area was quantified from five independent fields of view of the lower surface of the membrane under a microscope.

CARM1 [1] = target: T1, CARM1 (Homo sapiens, UniProt Q86X55); assay: CARM1 degradation by western blot in MCF7 cells; parameters: Cell lysates were collected and the CARM1 levels were detected by western blots; endogenous in cells; host or cells: MCF7
T1 sequence (Q86X55 1-608): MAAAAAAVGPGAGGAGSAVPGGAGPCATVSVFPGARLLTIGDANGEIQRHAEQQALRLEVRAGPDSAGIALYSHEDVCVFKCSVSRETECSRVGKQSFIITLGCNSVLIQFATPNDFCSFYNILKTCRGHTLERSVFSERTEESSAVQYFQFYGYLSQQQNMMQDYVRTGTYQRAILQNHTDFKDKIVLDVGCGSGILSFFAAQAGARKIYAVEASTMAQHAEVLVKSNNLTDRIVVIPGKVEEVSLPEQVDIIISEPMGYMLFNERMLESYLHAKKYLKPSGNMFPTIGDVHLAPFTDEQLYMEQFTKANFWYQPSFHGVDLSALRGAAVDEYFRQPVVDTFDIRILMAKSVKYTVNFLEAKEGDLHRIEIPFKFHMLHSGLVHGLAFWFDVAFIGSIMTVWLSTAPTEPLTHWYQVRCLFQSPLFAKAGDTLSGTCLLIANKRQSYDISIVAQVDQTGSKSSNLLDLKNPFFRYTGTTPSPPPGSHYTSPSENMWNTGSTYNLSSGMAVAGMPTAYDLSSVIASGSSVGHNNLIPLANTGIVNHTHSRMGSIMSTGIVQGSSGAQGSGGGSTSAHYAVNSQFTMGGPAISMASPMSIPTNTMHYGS

CARM1 [2] = target: T1, CARM1; assay: Global proteomics of MCF7 cells, CARM1 level; parameters: we performed a global quantitative proteomic analysis of MCF7 cells using mass spectrometry; endogenous in cells; host or cells: MCF7; conditions: 25 nM, 4 h, versus DMSO
Method: Sample preparation for global proteomics analysis. Sample preparation is similar to the previous report (Ma et al. “Strategy Based on Deglycosylation, Multiprotease, and Hydrophilic Interaction Chromatography for Large-Scale Profiling of Protein Methylation” Anal. Chem. 2017, 89 (23), 12909-12917). Briefly, treated MCF7 cells were harvested by washing with PBS buffer (Gibco, pH 7.4) and lysed in RIPA buffer supplemented with protease inhibitors for 20 min, then protein concentration was determined using a BCA Protein Assay Kit (Thermo Pierce, Rockford, IL) per manufacturer instructions. […] The concentrations of the peptide mixture were measured by peptide assay (Thermo Fisher Scientific). […]
LC-MS/MS data acquisition. Samples were analyzed on an Orbitrap Fusion Lumos Tribrid mass spectrometer (Thermo Fisher Scientific) coupled to a Dionex UltiMate 3000 UPLC system. […]
Data analysis. Protein identification and quantification by MaxQuant (version 1.5.3.8) based database searching, using the integrated Andromeda search engine with FDR <1% at peptide and protein levels. […] For label-free protein quantification (LFQ), the MaxQuant LFQ algorithm was used to quantitate the MS signals, and the proteins' intensities were represented in LFQintesnit (Schaab et al. “Analysis of High Accuracy, Quantitative Proteomics Data in the MaxQB Database” Mol. Cell. Proteomics 2012, 11 (3), M111.014068). […]

CNCCN1CCC(c2cc(CN(C)C(=O)c3cccc(Oc4ccc(OCC(=O)N5CCC(CN6CCC(CN7CCN(CC(=O)N[C@H](C(=O)N8C[C@H](O)C[C@H]8C(=O)N[C@@H](C)c8ccc(-c9scnc9C)cc8)C(C)(C)C)CC7)CC6)CC5)cc4)c3)ccn2)CC1 [Compound 3b, (2S,4R)-1-((S)-3,3-dimethyl-2-(2-(4-((1-((1-(2-(4-(3-(methyl((2-(1-(2-(methylamino)ethyl)piperidin-4-yl)pyridin-4-yl)methyl)carbamoyl)phenoxy)phenoxy)acetyl)piperidin-4-yl)methyl)piperidin-4-yl)methyl)piperazin-1-yl)acetamido)butanoyl)-4-hydroxy-N—((S)-1-(4-(4-methylthiazol-5-yl)phenyl)ethyl)pyrrolidine-2-carboxamide]
Dose lower than the corresponding inhibitor for the same anti-migratory effects (MDA-MB-231 cells; 0.5 μM 3b versus 10 μM TP-064): 20 fold | Cell migration (MDA-MB-231 cells; 0.5 μM, transwell, 20 h): inhibited cell migration at a similar level | Dmax (CARM1 [1]; MCF7, read-out: Dmax of CARM1 degradation, MCF7 cells, 24 h, western blot, three independent experiments): > 95% | Time after exposure at which CARM1 degradation was observed (CARM1 [1]; MCF7 cells, 0.5 μM, time course): 2 h | CARM1 degradation over time course (CARM1 [1]; MCF7 cells, 0.5 μM, up to 48 h): degradation sustained and further maximized over the course of 48 h | CARM1 degradation activity, rigid linker compared with 2e (CARM1 [1]; MCF7 cells, 0.1, 0.5, 1.0 and 10.0 μM, 24 hours, compared with 2e at 0.5 μM): significantly improved CARM1 degradation activity | CARM1 protein level in proteomics (CARM1 [2]): significant downregulation
